Data set [1] is described as follows: Biodegradability (OECD 306).
For a further data set, the system named is Fish. Kind of data set: Fish toxicity. As to conditions: in vivo.
The test system of the next data set is Algal. Briefly: Algal toxicity. As to conditions: in vivo.

Data on three molecules can be found in patent US8759264B2, “Water-based hydraulic fluids comprising dithio-di(aryl carbolic acids)” (Clarient Finance (BVI) Limited, priority 2008, dated 2014).

Where two headings read alike, the source gives them in different places.

With `O=C(O)c1ccccc1SSc1ccccc1C(=O)O` [Dithiodi(benzoic acid), o-dithiodibenzoic acid], the “Biodegradability (OECD 306)” value in data set [1] (OECD 306) is above 30%. Besides, the “Fish toxicity (LC50)” value in the data set on Fish is above 100 µg/mL. Also, in the data set with Algal, the “Algal toxicity (EC50)” value was above 100 µg/mL.
As to `S=c1[nH]c2ccccc2s1` [Mercaptobenzothiazole], in data set [1] (OECD 306), the “Biodegradability (OECD 306)” value is below 20%. Further, in the data set on Fish, the “Fish toxicity (LC50)” value was below 10 µg/mL. In the data set on Algal, the “Algal toxicity (EC50)” value was below 1 µg/mL.
Consider N-Aminoethyloleyl-imidazoline, for which the “Biodegradability (OECD 306)” value in data set [1] is above 60%. Moreover, in the data set on Fish, the “Fish toxicity (LC50)” value was below 10 µg/mL. Moreover, the “Algal toxicity (EC50)” value in the data set with Algal is below 1 µg/mL.
